Biological target: T1, Aromatase (Rattus norvegicus, UniProt P22443)
T1 construct: Infantile weibliche Ratten reagieren auf PMSG-Behandlung mit einheitlich erhöhter Steroidsynthese; from tissue; host or cells: living infantile female rats (whole animal); estradiol measured in serum by radioimmunoassay
T1 sequence (P22443 1-508): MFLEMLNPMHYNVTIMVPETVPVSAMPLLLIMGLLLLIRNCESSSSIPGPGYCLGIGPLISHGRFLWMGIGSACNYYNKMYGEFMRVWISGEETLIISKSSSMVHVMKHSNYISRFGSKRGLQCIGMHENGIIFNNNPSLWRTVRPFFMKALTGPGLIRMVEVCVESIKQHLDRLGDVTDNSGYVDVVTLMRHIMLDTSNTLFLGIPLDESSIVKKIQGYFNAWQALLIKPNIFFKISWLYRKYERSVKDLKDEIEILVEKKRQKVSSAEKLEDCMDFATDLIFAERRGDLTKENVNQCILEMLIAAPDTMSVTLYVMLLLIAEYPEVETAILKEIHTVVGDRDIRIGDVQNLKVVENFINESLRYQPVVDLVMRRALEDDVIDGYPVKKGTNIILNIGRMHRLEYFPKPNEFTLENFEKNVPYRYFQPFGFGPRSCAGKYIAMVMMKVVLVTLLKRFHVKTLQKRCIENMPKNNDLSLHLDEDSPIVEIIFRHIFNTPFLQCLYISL
Assay: PMSG (Pregnant Mare's Serum Gonadotropin) test: effect on PMSG-stimulated serum estradiol after oral application
Type: in vivo, Ratte
Conditions: 10 mg/Tier 2 x p.o.; for Östradiol-Konzentration in: peripheral serum of PMSG-pretreated infantile female rats, 24 h after last PMSG application, mean ± standard deviation, n = 10; for relative Wirkstärke: relative potency versus compound A (= 1,0), by regression and covariance analysis, rat
Description: So konnte zum Beispiel im sogenannten PMSG (Pregnant Mare's Serum Gonadotropin)-Test [J. Steroid. Biochem. 7, (1976) 787] gezeigt werden, daß im Vergleich zu dem bekannten Aromatasehemmer 19-Methylthio-4-androsten-3,17-dion (A) die erfindungsgemäßen Verbindungen, wie zum Beispiel 15α-Ethyl-19-methylthio-4-androsten-3,17-dion (B), bei oraler Applikation eine stärkere Wirkung besitzen.
Infantile weibliche Ratten reagieren auf PMSG-Behandlung mit einheitlich erhöhter Steroidsynthese. Die Aromataseaktivität kann durch die Beeinflussung der PMSG-stimulierten Östrogenbildung gemessen werden.
Im PMSG-Test werden 21 Tage alte weibliche Ratten alle 2 Tage insgesamt 7 mal mit je 100 I.U. PMSG subkutan vorbehandelt. 1 Stunde vor und 8 Stunden nach der letzten PMSG-Applikation (d₁₂) erhalten die Tiere die Testsubstanz durch orale Applikation.
Die Kontrolltiere erhalten nur das Vehikel. 24 Stunden nach der letzten PMSG-Applikation werden die Tiere getötet. Im Serum wird Östradiol radioimmunologisch geprüft. Für jede Gruppe von 10 Tieren wird der Mittelwert der Östradiolkonzentration in nMol/l mit der Standardabweichung errechnet. Die Signifikanzen der Unterschiede zur Kontrollgruppe werden durch die Varianzanalyse geprüft.
Zur Ermittlung der relativen Wirkungsstärke der zu testenden Substanz im Vergleich zu der Vergleichssubstanz wird die Regressions- und Kovarianzanalyse durchgeführt. Ferner wird die prozentuale Hemmung gegen die PMSG-Kontrolle berechnet.

In the case of CSC[C@]12CCC(=O)C=C1CC[C@@H]1[C@@H]2CC[C@]2(C)C(=O)CC[C@@H]12 [A, 19-Methylthio-4-androsten-3,17-dion], the “Östradiol-Konzentration in” value is reported as 5,50 ± 0,43 nMol/l and the “relative Wirkstärke” value is reported as 1,0.
For CC[C@H]1CC(=O)[C@@]2(C)CC[C@H]3[C@@H](CCC4=CC(=O)CC[C@@]43CSC)[C@H]12 [B, 15α-Ethyl-19-methylthio-4-androsten-3,17-dion], the “Östradiol-Konzentration in” value was 4,05 ± 0,36 nMol/l and the “relative Wirkstärke” value was 3,2.
